What all share (assay type): functional, cell-based
Experiment [1] is described as follows: Cytotoxicity against human MM418c5 cells.
Experiment [2] has as its system DU-145. Put plainly: Cytotoxicity against human DU145 cells.
For experiment [3], the system named is T47D. The experiment is described as follows: Cytotoxicity against human T47D cells.

The values below come from ChEMBL document CHEMBL1151830, “Cottoquinazoline A and cotteslosins A and B, metabolites from an Australian marine-derived strain of Aspergillus versicolor” (J Nat Prod, 2009).

≈ marks a conversion by molar mass, not a printed value. Non-standard residues stand in square brackets, D forms with d. Residues, ends and D or L forms follow the SMILES beside them. NMeY = CN[C@@H](Cc1ccc(O)cc1)C(=O)O

By EC50 is commonly meant the concentration needed to bring the measured effect to its halfway point. Read a high EC50 as a need for much substance.

With `CC[C@H](C)[C@@H]1NC(=O)[C@H](C(C)C)NC(=O)[C@@H]2CCCN2C(=O)[C@H](Cc2ccc(O)cc2)NC(=O)[C@H](Cc2ccc(O)cc2)N(C)C1=O` [COTTESLOSIN A] (cyclo(I[NMeY]YPV)), the EC50 in experiment [1] stood at 66 µg/mL (≈ 102 µM); in experiment [2], 90 µg/mL (≈ 139 µM); in experiment [3] it was 94 µg/mL (≈ 145 µM).
